The text below walks through data of patent US4939171A, “Sebosuppressive topical preparations” (Henkel Kommanditgesellschaft auf Aktien, priority 1987, dated 1990).

The subject of assay [1] is sebum. Nature of the assay: Testing and evaluation of the antiseborrhoeic effect: percentage sebum reduction from browning of the backs of male rats. To be noted: Rattus norvegicus, 336 h, topical, male Wistar rats, 9 applications in 2 weeks; for inhibition in vivo at 0.01 % strength: Concentration 0.01 % by weight; for inhibition in vivo at 0.05 % strength: Concentration 0.05 % by weight; for inhibition in vivo at 0.5 % strength: Concentration 0.5 % by weight; for inhibition in vivo at 0.02 % strength: Concentration 0.02 % by weight; for inhibition in vivo at 0.001 % strength: Concentration 0.001 % by weight; for inhibition in vivo at 0.005 % strength: Concentration 0.005 % by weight; for inhibition in vivo at 0.1 % strength: Concentration 0.1 % by weight. The assay is classed as in vivo. The text has this: The test is based on the observation that male rats secrete a brownish sebum so that the degree of greasiness of the skin may readily be visually assessed as browning of the skin. […] At the same time, only very small quantities of lipids can be extracted from the hair cut off; cf. J Soc. Cosmet. Chem. 34, 127-135 (1983)).
Male Wistar rats having a body mass of 220 to 230 grams at the beginning of the test were used as the test animals. The test substances, dissolved in a mixtures of equal volumes of ethanol and acetone, were brushed onto half of the back of each of 6 rats for each substance and concentration tested. The other half of the back of each tested rat was treated with the solvent only. One application was made on each tested rat on each of Monday through Friday of one week and on each of Monday through Thursday in the next week; the rats were then evaluated on Friday of the second week. For evaluation, the rats were shaved on their backs and flanks and visually assessed independently by a panel of examiners (6 people) under double-blind conditions. The degree of browning on the backs of the rats was visually assessed as a measure of the sebum coating. A group of six rats of the same type treated on both sides with the solvent only was used for control.
The intensities of the brown color on each control rat, and on the side of each other tested rat that had been treated with a solution containing a substance to be tested for its sebosuppressive ability, were scored according to the following scale:
The sum of the scores for the six treated rats in each group was divided by the sum of the scores for the six control rats for that group, this quotient was multiplied by 100, and that result subtracted from 100, to give the percentage sebum reduction as recorded in the tables below.

Assay [2] concerns sebum. To be noted: male rats systematically treated; cited from earlier work.

Molecules are shown by their SMILES.

As a reminder, the inhibition in vivo is how much of the control response was suppressed. Higher therefore signals a strong effect. In the assay on sebum [1], `COC(=O)c1ccc(OC(C)CCC2C(C)CCCC2(C)C)cc1` (stereo not shown) [Example 1.1, 4-[4-(1,1,3-trimethyl-2-cyclohexyl)-2-butoxy]-benzoic acid methyl ester] registered an inhibition in vivo at 0.01 % strength of 25% and an inhibition in vivo at 0.05 % strength of 99%.

For the compound `COC(=O)C=Cc1ccc(OCC2CCCCC2)cc1` [Example 1.2, 4-cyclohexylmethoxycinnamic acid methyl ester], in the assay on sebum [1], the inhibition in vivo at 0.5 % strength is 29%.

On to `COC(=O)c1ccc(OCCCC2CCCCC2)cc1` [Example 1.3, 4-(3-cyclohexylpropyloxy)-benzoic acid methyl ester], for which, in the assay on sebum [1], the inhibition in vivo at 0.02 % strength came out at 0%, the inhibition in vivo at 0.05 % strength worked out at 68% and the inhibition in vivo at 0.5 % strength was determined as 99%.

With `CC(CCC1C(C)CCCC1(C)C)Oc1ccc(C(=O)O)cc1` (stereo not shown) [Example 1.4, 4-(4-(1,3,3-trimethyl-2-cyclohexyl)-2-butoxy)-benzoic acid], in the assay with sebum [1], the inhibition in vivo at 0.001 % strength turned out to be 73%, the inhibition in vivo at 0.005 % strength is 88%, the inhibition in vivo at 0.01 % strength came to 93% and the inhibition in vivo at 0.05 % strength came to 100%.

Consider `O=C(O)C=Cc1ccc(OCC2CCCCC2)cc1` [Example 1.5, 4-(cyclohexylmethoxy)-cinnamic acid], for which the inhibition in vivo at 0.5 % strength in the assay with sebum [1] was 15%.

In the assay with sebum [1], `O=C(O)c1ccc(OCCCC2CCCCC2)cc1` [Example 1.6, 4-(3-cyclohexylpropyloxy)-benzoic acid] showed an inhibition in vivo at 0.005 % strength of 0%, an inhibition in vivo at 0.01 % strength of 52% and an inhibition in vivo at 0.02 % strength of 84%.

Regarding `OCC=Cc1ccc(OCC2CCCCC2)cc1` [Example 1.7, 4-cyclohexylmethoxycinnamic alcohol], in the assay on sebum [1], the inhibition in vivo at 0.1 % strength came to 53% and the inhibition in vivo at 0.5 % strength amounted to 66%.

Take `COC(=O)c1ccc(OCC=C(C)CCC=C(C)CCC=C(C)C)cc1` [Example 1.8, 4-farnesyloxybenzoic acid methyl ester]: in the assay on sebum [1], the inhibition in vivo at 0.01 % strength is 38% and the inhibition in vivo at 0.05 % strength turned out to be 86%.

On to `COC(=O)c1ccc(OC/C=C(\C)CCC=C(C)C)cc1` [Example 1.9, 4-geranyloxybenzoic acid methyl ester], for which the inhibition in vivo at 0.1 % strength in the assay on sebum [1] is 40%.

Turning to `COC(=O)CCc1ccc(OCC=C(C)CCC=C(C)CCC=C(C)C)cc1` [Example 1.11, 3-(4-farnesyloxyphenyl)-propionic acid methyl ester], the inhibition in vivo at 0.05 % strength in the assay on sebum [1] was determined as 86%.

Take `COC(=O)C=Cc1ccc(OCC=C(C)CCC=C(C)CCC=C(C)C)cc1` [Example 1.12, 4-farnesyloxycinnamic acid methyl ester]: in the assay on sebum [1], the inhibition in vivo at 0.05 % strength was 85%.

`CC(C)=CCCC(C)=CCCC(C)=CCOc1ccc(CCC(=O)O)cc1` [Example 1.13, 3-(4-farnesyloxyphenyl)-propionic acid] had an inhibition in vivo at 0.05 % strength with sebum [1] of 68%.

In the assay on sebum [1], `CC(C)=CCCC(C)=CCCC(C)=CCOc1ccc(C=CC(=O)O)cc1` [Example 1.14, 4-farnesyloxycinnamic acid] registered an inhibition in vivo at 0.05 % strength of 73%.

Turning to `C/C(=C\COc1ccc(C(=O)O)cc1)CCC[C@H](C)CCC[C@H](C)CCCC(C)C` [Example 1.15, 4-phytyloxybenzoic acid], the inhibition in vivo at 0.05 % strength in the assay on sebum [1] worked out at 35%.

In the assay on sebum [1], `CC(C)=CCCC(C)=CCCC(C)=CCOc1ccc(C(=O)O)cc1` [Example 1.16, 4-farnesyloxybenzoic acid] came in with an inhibition in vivo at 0.01 % strength of 69%.

In the case of `CC(C)=CCCC(C)=CCCC(C)=CCOc1ccc(CO)cc1` [Example 1.17, 4-farnesyloxybenzyl alcohol], in the assay on sebum [1], the inhibition in vivo at 0.001 % strength stood at 14%, the inhibition in vivo at 0.005 % strength was found to be 72%, the inhibition in vivo at 0.01 % strength stood at 87% and the inhibition in vivo at 0.05 % strength came to 86%. Besides, the inhibition in vivo at 0.002 % strength with sebum [1] (Concentration 0.002 % by weight) was determined as 18%.

For the compound `CC#C[C@]1(O)CC[C@H]2[C@@H]3CCc4cc(O)ccc4[C@H]3CC[C@@]21C` [estrogen], the “skin colour after shearing (browning by sebum)” value with sebum [2] is listed as “only show the normal light, pink-colored skin after shearing”.
